From patent US20230000808A1, “COMPOSITIONS AND METHODS EXCLUDING OR WITH REDUCED GLUTAMINE FOR THE TREATMENT OF HEMOGLOBINOPATHIES AND THALASSEMIAS” (AXCELLA HEALTH INC., priority 2019, published 2023) come the findings set out here.

For test [1], the system named is RBCs of healthy whole blood. The experiment in a line: RBC deformability (Elongation Index, LORRCA ektacytometry), ex vivo TBHP oxidation of healthy whole blood. The format is cell-based, human. As to conditions: healthy donor 2, single amino acid treatments. An excerpt:
Whole blood from healthy African American and/or Hispanic donors was obtained from Research Blood Components, LLC based on the following donor selection criteria: Adult age (between 18 and 50 years), normal BMI (<30), and absence of other confounding clinical conditions. Whole blood from SCD donors were obtained from BioIVT based on the following donor selection criteria: Patients with genotypes HbSS, HbSC, HbS/β^0 and at least 1-2 months gap since last blood transfusion. Whole blood was shipped on ice on the same day as blood draw. Upon receipt, the blood sample was aliquoted and stored in the refrigerator until used for studies.
RBC deformability measurements were conducted with the Laser Optical Rotational Red Cell Analyzer (LORRCA) from RR Mechatronics in a temperature-controlled environment (37° C.). Briefly, an even layer of RBCs suspended in polyvinylpyrrolidone (PVP) is subjected to shear stress gradient (0.3 to 30 Pa) through two concentric cylinders and the resulting changes in RBC shape or deformability are measured by a laser beam diffraction pattern. The captured images of RBC shape in response to increasing shear stress are then analyzed by the LORRCA program to calculate Elongation Index (EI).
Healthy RBCs have higher deformability ≥0.5 EI and SCD RBCs have lower deformability or EI values as studied by LORRCA ektacytometry in the field. […] The induced hemolysis model in this disclosure involves use of tert-butyl hydroperoxide (TBHP) to lower EI of RBCs.
The ex vivo hemolysis study disclosed here involves overnight treatment of whole blood with vehicle as a control and specific amino acids followed by rapid oxidation (5 min) with TBHP. Method for oxidation of whole blood with tert-butyl hydroperoxide has been used in prior literature (Diederich L, et al, Front Physiol. 2018 May 11; 9:332). RBC deformability or shape changes are then measured with LORRCA ektacytometry.
Whole blood aliquots stored in the fridge were brought up to room temperature while gently shaking on a rocker at low speed for an hour to ensure gradual and uniform suspension of red blood cells prior to deformability measurements. Vehicle control used in the study was 1× Dulbecco's […]) and amino acids disclosed herein were added (at either final 10× or 2.5 mM concentration as indicated) to corresponding vehicle and amino acid treatment conditions. The samples were then incubated overnight at 37° C. The next day, 25 μl of whole blood was taken from each treatment condition and added to 5 mL Elon ISO viscous solution from RR Mechatronics. The sample was inverted 15-20 times to ensure proper mixing of the treated RBCs with the Elon ISO solution followed by loading the sample on LORRCA and capturing RBC deformability or shape measurements over the applied shear gradient. The remaining whole blood treatments were returned to incubator (37° C.) until deformability measurements were completed for all treatments. To the remaining whole blood treatment samples, TBHP solution (5.0-6.0 M in Decane, Sigma) was added at 2.5 mM final concentration from a 100 mM freshly prepared stock and incubated for further 5 min at 37° C. 25 μl of this TBHP-treated sample was immediately removed at the end of the 5 min incubation and added to the Elon ISO solution for RBC deformability measurement after oxidation. Included in the Tables 13-15 are EI measurements at ½ EImax shear stress 1.69 Pa and EImax shear stress 30 Pa from these studies and FIG. 1 captures EI measurements for all shear stress points for the indicated treatment conditions.

For another test, the system named is TNFα. The experiment in a line: LPS-induced TNF-α secretion in primary human monocyte-derived macrophages (ELISA). Format: cell-based. The note with it: LPS, baseline subtracted. How it is done: (§1) Primary human PMBC derived macrophages were seeded on day 0 at 3.0×10^4 cells per well in 96-well microplates (ThermoFisher) in Dulbecco's Modified Eagle Medium (DMEM) (Gibco) supplemented with penicillin-streptomycin (Hyclone) and 10% heat inactivated fetal bovine serum (HI-FBS) (Atlanta Bio) and incubated overnight at 37° C., 5% CO2. On day 1, cells were washed once with 150 μl per well DPBS (Gibco) and treated with 75 μl of: • a. […] The same medium described above with one amino acid at various concentrations including complete dropout. […] On day 3, the supernatant was collected and immediately frozen in −80° C. freezer. Cells were washed once with 150 μl DPBS and viability was assessed using the WST-8 Cell Proliferation Cytotoxicity Assay (Dojindo). […] Protein levels in supernatant samples were analyzed by ELISA for IL-6 and TNFα using commercially available kits (R&D Systems) according to manufacturer-supplied protocols.

Test [2] relates to IL-6. The test can be described thus: LPS-induced IL-6 secretion in primary human monocyte-derived macrophages (ELISA). The format is cell-based. The note with it: for Donor 1 IL-6 Measurements Mean / Donor 2 IL-6 Measurements Mean / Donor 3 IL-6 Measurements Mean: LPS, baseline subtracted. How it is done: as §1
Test [3] deals with sickle cell disease patient blood. The experiment in a line: ROS (DCF fluorescence) in sickle cell disease patient whole blood. Format: cell-based, human. How it is done: (§2) Whole blood samples were appropriately diluted in Ca^2+- and Mg^2+-free Dulbecco's phosphate buffered saline (DPBS, Life Technologies) and the concentration of erythrocytes (RBC/mL) was measured on a Cellometer K2 Fluorescent Viability Cell Counter according to the manufacturer's RBC/AOPI protocol (Nexcelom Biosciences).
(§3) Cells were then diluted to 1×10^6 RBC/mL into either prewarmed 37° C. […] 2′-7′-dichlorofluorescin diacetate (DCF, Millipore Sigma), 20 mM in dimethyl sulfoxide (DMSO, Fisher) were added to a working concentration of 100 μM. Cells were incubated with dye for 15 minutes at 37° C., 5% CO2 in a tissue culture incubator, washed once, and resuspended in the 0.9 volumes of the same prewarmed 37° C. buffer with 5 minute spins at 500×g, accel/decal=5 in a swing arm centrifuge (Beckman Coulter). […] Where possible due to solubility constrains, pH-7.4-adjusted stock solutions of amino acids were used. Wells were mixed by pipetting and plates incubated at 37° C., 5% CO2 in a tissue culture incubator for 30 minutes. Optionally, 40 mM H2O2 (Millipore Sigma) freshly prepared in the same buffer was added to bring the concentration to 2 mM, wells mixed by pipetting, and plates were incubated an additional 30, 60, 120, or 240 minutes before fluorescence measurement of ROS signal on a Synergy H4 (BioTek) microplate reader with excitation=488 nm and emission=530 nm, and gain either set to autogain, 75, or 100.

Test [4] has as its system whole blood from healthy controls. The experiment in a line: ROS (DCF fluorescence) in whole blood of healthy control donors, H2O2-induced. The format is cell-based, human. On the procedure: as §2, §3
Another test concerns VCAM-1. The test can be described thus: VCAM-1 cell integrated intensity in HLMVEC treated with TNF-α (immunofluorescence). The format is cell-based, human. How it is done:
(§4) Primary Human Lung Microvascular Endothelial Cells (HLMVEC; Lonza) were seeded at 6,000 cells per well in Endothelial Cell Growth Basal Medium-2 (Lonza) supplemented with Fetal Bovine Serum (FBS; Lonza), human EGF (Lonza), human VEGF (Lonza), R3-Insulin-like Growth Factor-1 (Lonza), ascorbic acid (Lonza), hydrocortisone (Lonza), human FGF-beta (Lonza), and gentamicin/amphotericin-b (Lonza) in a 96-well plate (Thermo Fisher). The cells were incubated for 45 minutes at room temperature, then incubated overnight at 37° C./5% CO2.
(§5) Following overnight incubation, cell were washed once with 150 μL of Dulbecco's phosphate buffered saline (DPBS; Gibco), and then treated with Endothelial Basal Medium MCB-131 (amino acid, glucose, sodium pyruvate, and phenol red free; US Biologicals) containing a defined custom amino acid concentration based on physiological concentrations in blood of patients with SCD (thus recapitulating observed metabolic imbalances such as the depletion of certain essential amino acids including arginine and aspartate and enrichment of certain non-essential amino acids including glutamate and asparagine), dialyzed FBS (Hyclone), human EGF (Lonza), human VEGF (Lonza), R3-Insulin-like Growth Factor-1 (Lonza), ascorbic acid (Lonza), hydrocortisone (Lonza), human FGF-beta (Lonza), and gentamicin/amphotericin-b (Lonza), glucose, 10 mM HEPES, sodium pyruvate, and sodium bicarbonate supplemented with one of the following: • a. PBS (vehicle control), • b. 0.5 ng/mL Tumor Necrosis Factor alpha (TNFα) and PBS, or; • c. 0.5 ng/mL TNF-α and amino acid treatments at 20× mean physiological concentrations in plasma based on values published in the Human Metabolome Database (HMDB) in PBS.
(§6) After 24 hours of treatment, cells were washed once with 150 μL of DPBS (Gibco), then fixed with 4% paraformaldehyde. Following fixation, cells were stained with anti-ICAM-1 [MEM-111] (mouse IgG2a anti-human; abcam) and anti-VCAM1 [1.4C3] (mouse IgG1, K anti-human; abcam) primary antibodies at 1000×, and 100× dilutions respectively. Cells were then stained with Goat anti-Mouse IgG2a Cross-Adsorbed Secondary Antibody, Alexa Fluor 594 (Invitrogen) and Goat anti-Mouse IgG1 Cross-Adsorbed Secondary Antibody, Alexa Fluor 647 (Invitrogen) secondary antibodies. Nuclei were stained with Hoechst 3342 (Life Technologies).
(§7) Antibody binding was detected by fluorescence microscopy using a high content imager (Molecular Devices). Images were analyzed using MetaXpress 6 software to determine the integrated intensity per cell for each wavelength corresponding to ICAM-1 or VCAM-1.

In the next test the test system is HLMVEC. The experiment in a line: META-rank score, composite of VCAM1, ICAM1 and IL6 in the HLMVEC model. The format is cell-based, human. The note with it: HLMVEC + TNF-α; lower score = more optimal; 20x HMDB / 5 mM. How it is done:
The ability of single amino acids and combinations to simultaneously impact these phenotypes was measured by a META-rank score (Tables 17 and 18). META-rank score is a composite measure that considers the optimal impact on all 3 phenotypes (e.g. decrease VCAM1, ICAM1, and IL6) in the HLMVEC model.

Test [5] has as its system IL-6. The test can be described thus: Secreted IL-6 in HLMVEC treated with TNF-α (FirePlex). The format is cell-based, human. As to conditions: HLMVEC + 0.5 ng/mL TNF-α, 24 h; amino acids 20x HMDB, Nac/Cit/Car 5 mM as bracketed. How it is done: as §4, §5
Supernatants were analyzed for IL-6 concentrations using a Human Cytokines FirePlex-HT Panel 1 kit (abcam) according to the manufacturer-supplied instructions. Particles were imaged on a high content imager (Molecular Devices), and results were interpolated from a standard curve with FirePlex Analysis Workbench Software (abcam) according manufacturer's recommendations.

Another test has as its system ICAM-1. The experiment in a line: ICAM-1 cell integrated intensity in HLMVEC treated with TNF-α (immunofluorescence). The format is cell-based, human. The note with it: HLMVEC + 0.5 ng/mL TNF-α, 24 h; amino acids 20x HMDB, Nac/Cit/Car 5 mM as bracketed. How it is done: as §4, §5, §6, §7
The mark [6] stands for this setting: Donor 1, Conc. 109 μM (baseline).

For `N=C(N)NCCC[C@H](N)C(=O)O` [Arginine], the “EI over vehicle control, both ½ EImax and EImax” value in test [1] was “higher than the vehicle”. Besides, the “TNF-α Measurements Mean” value is on record as 0 in the test with TNFα (setting [6]); −24.33 in the test with TNFα (Donor 1, Conc. 1088 μM); 5.12 in the test on TNFα (Donor 1, Conc. 2720 μM); 62.06 with TNFα (Donor 1, Conc. 5440 μM); 1.42E−14 in the test on TNFα (Donor 2, Conc. 109 μM (baseline)); −12.7222 in the test on TNFα (Donor 2, Conc. 1088 μM). Moreover, the “TNF-α Measurements Mean” value with TNFα (Donor 2, Conc. 2720 μM) is −3.763; in the test with TNFα (Donor 2, Conc. 5440 μM), −0.5738; in the test with TNFα (Donor 3, Conc. 109 μM (baseline)), 3.55E−15; in the test on TNFα (Donor 3, Conc. 1088 μM), 3.131; in the test on TNFα (Donor 3, Conc. 2720 μM), −0.9669; in the test with TNFα (Donor 3, Conc. 5440 μM), −1.767. Also, the “Donor 1 IL-6 Measurements Mean” value in the test with IL-6 [2] (setting [6]) is recorded as 0; in the test on IL-6 [2] (Donor 1, Conc. 1088 μM), −181.36; in the test with IL-6 [2] (Donor 1, Conc. 2720 μM) it was −186.57; in the test with IL-6 [2] (Donor 1, Conc. 5440 μM) it was 357.4394. The “effect on LPS-induced IL-6 secretion” value in the test on IL-6 [2] (Donor 1, Two Way ANOVA Dunnett) is “increased”. The “Donor 2 IL-6 Measurements Mean” value in the test on IL-6 [2] (Conc. 109 μM (baseline)) is on record as 2.37E−15; with IL-6 [2] (Conc. 1088 μM), −9.701; in the test with IL-6 [2] (Conc. 2720 μM) it was −13.6102; with IL-6 [2] (Conc. 5440 μM), −12.4164. Further, the “Donor 3 IL-6 Measurements Mean” value in the test on IL-6 [2] (Conc. 109 μM (baseline)) is reported as 0; in the test on IL-6 [2] (Conc. 1088 μM), 31.5786; in the test on IL-6 [2] (Conc. 2720 μM), −7.503; with IL-6 [2] (Conc. 5440 μM), −6.81.
Turning to `N[C@@H](CS)C(=O)O` [cysteine], the “ROS measured in whole blood” value is reported as “reduced” in test [3] (both treated with H2O2 and untreated, in DPBS); “reduced” in test [4] (healthy control donors treated with H2O2, dose-responsive).
For `N[C@@H](Cc1c[nH]c2ccccc12)C(=O)O` [tryptophan], the “ROS signal” value in test [3] (10×) is reported as “increased”; in test [4] (healthy donor blood, 10×), “increased”.
For the compound `NC(=O)NCCC[C@H](N)C(=O)O` [Cit, citrulline], in the test with VCAM-1 (0.5 ng/mL TNF-α, amino acids at 20× HMDB, 24 hours), the “VCAM-1 expression in HLMVEC” value is on record as “moderate effect”. In addition, the “VCAM-1 Cell Integrated Intensity Median” value in the test with VCAM-1 (HLMVEC + 0.5 ng/mL TNF-α, 24 h, amino acids 20x HMDB, Nac/Cit/Car 5 mM as bracketed) was −0.157. Also, in test [1], the “EI over vehicle control, both ½ EImax and EImax” value is “higher than the vehicle”. Also, in the test with HLMVEC, the “Meta-Rank (Table 18)” value is 8 and the “Metarank (Table 17)” value was determined as 16. The “Secreted IL6 Median” value with IL-6 [5] is listed as −0.270. Further, the “ICAM-1 Cell Integrated Intensity Median” value in the test with ICAM-1 was −0.118.
